Broadly, the TGI is the concentration giving total growth inhibition. Read a low TGI as more potent growth arrest. One may read the GI50 as the concentration at which growth is held to half of that of the control.

Molecules are shown by their SMILES.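 Compound exposure: 48 hours, 5 concentrations, 96-well plates. At the GI50, growth is halved. TGI marks complete inhibition of growth.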

Among the test systems are ACHN renal; DMS 273 small cell lung; NCI-H522 lung; RXF 393 renal; SNB-78 CNS; UACC-62 melanoma; HL-60(TB) leukemia; OVCAR-3 ovarian; SF-539 CNS; SK-MEL-5 melanoma.
Common to all, as to experiment: DTP human tumour cell line panel, 48 h

Take `O=c1c(O)cccn1C1OC(CO)C(O)C1O` (stereo not drawn): the TGI with ACHN renal, with DMS 273 small cell lung, in the assay with NCI-H522 lung, in the assay with RXF 393 renal, in the assay on SNB-78 CNS and in the assay with UACC-62 melanoma was above 100 µM in each case.
`Cc1nc2c(n1-c1ccccc1)C(=O)c1ccccc1C2=O`: the concentration for total growth inhibition (TGI) in the assay on ACHN renal is above 100 µM; in the assay on DMS 273 small cell lung, above 100 µM; with HL-60(TB) leukemia it was 45.1 µM; with NCI-H522 lung it was 71.8 µM; in the assay with OVCAR-3 ovarian it was 54.1 µM; in the assay with RXF 393 renal it was above 100 µM. Further, the total growth inhibition concentration (TGI) in the assay with SF-539 CNS, in the assay on SK-MEL-5 melanoma, in the assay on SNB-78 CNS and in the assay on UACC-62 melanoma was above 100 µM in each case.
In the case of `CS(=O)(=O)[O-].CS(=O)(=O)[O-].NC1CCCCC1N.[Pt+4]` (stereo not drawn), the GI50 with HL-60(TB) leukemia was 33.5 µM; in the assay with NCI-H522 lung it was above 71.1 µM; in the assay with OVCAR-3 ovarian, above 100 µM; in the assay with RXF 393 renal, above 100 µM; with SF-539 CNS, above 100 µM; in the assay on SK-MEL-5 melanoma it was 48.4 µM. The GI50 in the assay with SNB-78 CNS and in the assay on UACC-62 melanoma was above 100 µM each time. For the same compound, the TGI in the assay on HL-60(TB) leukemia is above 93.5 µM; with NCI-H522 lung it was above 100 µM; in the assay on OVCAR-3 ovarian it was above 100 µM; in the assay on RXF 393 renal, above 100 µM; in the assay on SF-539 CNS, above 100 µM; with SK-MEL-5 melanoma it was above 100 µM. The total growth inhibition concentration (TGI) with SNB-78 CNS and in the assay on UACC-62 melanoma was above 100 µM each time.
As for `O=C1C(Cl)=C(c2ccc([N+](=O)[O-])cc2)C(=O)c2c(O)cccc21`, the TGI is 2.36 µM with ACHN renal; above 100 µM in the assay with DMS 273 small cell lung; above 100 µM with HL-60(TB) leukemia; 0.545 µM in the assay on NCI-H522 lung; 3.11 µM in the assay with OVCAR-3 ovarian; 3.49 µM with RXF 393 renal. Further, the figures for the TGI in the assay on SF-539 CNS, with SK-MEL-5 melanoma and in the assay with UACC-62 melanoma were 1.13 µM, 3.46 µM and 1.98 µM, respectively.
On to `C=CCCCCn1c2ccccc2c2c(C)c3cnccc3c(C)c21`, for which the concentration for total growth inhibition (TGI) in the assay with DMS 273 small cell lung worked out at 20.5 µM; in the assay on HL-60(TB) leukemia, 4.92 µM; in the assay on NCI-H522 lung it was 18 µM; in the assay with OVCAR-3 ovarian it was 19.9 µM; with RXF 393 renal, 43 µM; in the assay on SF-539 CNS it was 33.5 µM. Moreover, the results for the total growth inhibition concentration (TGI) in the assay on SK-MEL-5 melanoma, in the assay on SNB-78 CNS and in the assay on UACC-62 melanoma were 16.7 µM, 46.3 µM and 40.9 µM, respectively.
As for `O=C(O)Cc1ccccc1CCc1ccccc1Cl`, the TGI in the assay on DMS 273 small cell lung, in the assay with HL-60(TB) leukemia, with NCI-H522 lung, in the assay on OVCAR-3 ovarian, in the assay with RXF 393 renal and in the assay with SF-539 CNS was above 100 µM each time. Also, the TGI in the assay with SK-MEL-5 melanoma and in the assay on SNB-78 CNS was above 100 µM each time.
Take `C=CCOC1(CC=C)C(=O)OC2C(O)COC21O` (stereo not drawn): the TGI with ACHN renal, in the assay on HL-60(TB) leukemia, in the assay with NCI-H522 lung, with OVCAR-3 ovarian, in the assay on RXF 393 renal and in the assay with SF-539 CNS was above 100 µM in each case. For the same compound, the TGI in the assay on SK-MEL-5 melanoma and in the assay with UACC-62 melanoma was above 100 µM in each case.
For the compound `COc1cccc(NC(=O)CC(=O)N2N=C(C)C(N=Nc3ccc(C(=O)O)cc3)C2=O)c1` (stereo not drawn), the total growth inhibition concentration (TGI) in the assay with ACHN renal, in the assay on HL-60(TB) leukemia, in the assay on NCI-H522 lung, in the assay with OVCAR-3 ovarian, in the assay with RXF 393 renal and in the assay on SF-539 CNS was above 100 µM in each case. The concentration for total growth inhibition (TGI) in the assay with SK-MEL-5 melanoma and in the assay with UACC-62 melanoma was above 100 µM each time.
For the compound `CNC(=O)N(CCC#N)CCCN(C(=O)N(C)C)c1ccccc1`, the concentration for total growth inhibition (TGI) with ACHN renal, in the assay with HL-60(TB) leukemia, in the assay with NCI-H522 lung, in the assay with OVCAR-3 ovarian, in the assay with RXF 393 renal and in the assay on SF-539 CNS was above 100 µM each time. The TGI in the assay with SK-MEL-5 melanoma and in the assay with UACC-62 melanoma was above 100 µM in each case.
For the compound `COc1ccc(C2SCC(=O)N2NC(=O)C(C)Oc2ccc(Cl)cc2Cl)cc1` (stereo not drawn), the TGI in the assay with ACHN renal was above 100 µM; in the assay with HL-60(TB) leukemia, 34.8 µM; in the assay with NCI-H522 lung, above 100 µM; in the assay with OVCAR-3 ovarian it was above 100 µM; with RXF 393 renal, 59.2 µM; in the assay with SF-539 CNS, 35.9 µM. Moreover, the TGI with SK-MEL-5 melanoma and in the assay on UACC-62 melanoma was above 100 µM throughout.
`C[C@]12CCC(=O)C=C1CC[C@@H]1[C@@H]2[C@@H](O)C[C@@]2(C)[C@H]1CC[C@]2(O)C(=O)COC(=O)CCC1CCCC1`: the concentration for total growth inhibition (TGI) in the assay with ACHN renal, in the assay on DMS 273 small cell lung, in the assay with HL-60(TB) leukemia, in the assay with NCI-H522 lung, in the assay on OVCAR-3 ovarian and with RXF 393 renal was above 100 µM in each case. Further, the total growth inhibition concentration (TGI) with SF-539 CNS, in the assay on SK-MEL-5 melanoma, in the assay on SNB-78 CNS and in the assay with UACC-62 melanoma was above 100 µM throughout.
For `COC(=O)C1CC23C=CCN4CC(C2C)C2(c5ccccc5NC12)C43` (stereo not drawn), the TGI in the assay on ACHN renal, in the assay on HL-60(TB) leukemia, in the assay with NCI-H522 lung, in the assay with OVCAR-3 ovarian, with RXF 393 renal and in the assay with SF-539 CNS was above 100 µM each time. Further, the TGI with SK-MEL-5 melanoma and with UACC-62 melanoma was above 100 µM throughout.

(Values after PubChem BioAssay (NCI).)
